The test system of this assay is α7 integrin promoter. Put plainly: muscle cell-based assay: α7βgal+/− myoblasts/myotubes, LacZ reporter, β-galactosidase cleavage of FDG. Further details: species or system mouse. Particulars: Myotubes; for Results in a α7+/− β-galactosidase assay, Myotubes, 0.5 uM: compound at 0.5 uM; for Results in a α7+/− β-galactosidase assay, Myotubes, 1 uM: compound at 1 uM; for Results in a α7+/− β-galactosidase assay, Myotubes, 5 uM: compound at 5 uM; for Results in a α7+/− β-galactosidase assay, Myotubes, 10 uM: compound at 10 uM; for Results in a α7+/− β-galactosidase assay, Myotubes, 20 uM: compound at 20 uM; for Results in a α7+/− β-galactosidase assay, Myotubes, 40 uM: compound at 40 uM. In a few lines:
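Primary α7βgal+/− mouse myoblasts (LacZ knocked into α7 integrin exon 1, promoter retained), differentiated; promoter activity read as β-galactosidase conversion of non-fluorescent FDG to fluorescein. Hits followed by dose-response, western analysis and myostatin counterscreen.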

Consider `O=C1c2ccccc2C(=O)C1(CC(O)O)c1ccccc1` [drawing 474], for which the “Results in a α7+/− β-galactosidase assay, Myotubes, 0.5 uM” value (from here on “Results … 0.5 uM”) was −0.08689; the “Results in a α7+/− β-galactosidase assay, Myotubes, 1 uM” value (“Results … 1 uM” for short) turned out to be 0.05823; the “Results in a α7+/− β-galactosidase assay, Myotubes, 5 uM” value (shortened to “Results … Myotubes, 5 uM”) is −0.2367; the “Results in a α7+/− β-galactosidase assay, Myotubes, 10 uM” value (from here on “Results … 10 uM”) was −0.3763. Also, the “Results in a α7+/− β-galactosidase assay, Myotubes, 20 uM” value (“Results … 20 uM” below) is reported as −0.3304 and the “Results in a α7+/− β-galactosidase assay, Myotubes, 40 uM” value (shortened to “Results … 40 uM”) is listed as −0.4389.
On to `Cc1ccc(Cn2nnc3c(O)nc(C4CCCN(C(=O)c5ccco5)C4)nc32)cc1` (stereo not drawn) [drawing 475], for which the “Results … 0.5 uM” value is recorded as −0.1767; the “Results … 1 uM” value is listed as −0.1614; the “Results … Myotubes, 5 uM” value is recorded as −0.2961; the “Results … 10 uM” value is recorded as −0.3051. Besides, the “Results … 20 uM” value is recorded as −0.225 and the “Results … 40 uM” value was −0.2551.
With `Cc1ccc(NS(=O)(=O)c2ccc(-c3ccc(O)nn3)o2)c(C)c1` [drawing 477], the “Results … 0.5 uM” value is listed as −0.04997; the “Results … 1 uM” value was determined as 0.003075; the “Results … Myotubes, 5 uM” value is −0.3008; the “Results … 10 uM” value is on record as −0.389. Further, the “Results … 20 uM” value is given as −0.09047 and the “Results … 40 uM” value is on record as −0.1539.
With `CCCCN1CC(=O)N2Cc3[nH]c4ccccc4c3C[C@H]2C1=O` [drawing 478], the “Results … 0.5 uM” value is −0.1229; the “Results … 1 uM” value is listed as −0.1432; the “Results … Myotubes, 5 uM” value is −0.3665; the “Results … 10 uM” value is −0.4899. Moreover, the “Results … 20 uM” value is recorded as −0.2121 and the “Results … 40 uM” value was −0.2272.
Take `CCC(CC)C(=O)Nc1c(C(=O)N2CCN(c3ccccc3)CC2)oc2ccccc12` [drawing 479]: the “Results … 0.5 uM” value was −0.04763; the “Results … 1 uM” value is −0.04983; the “Results … Myotubes, 5 uM” value is recorded as −0.2904; the “Results … 10 uM” value was −0.3853. Also, the “Results … 20 uM” value is −0.08708 and the “Results … 40 uM” value was −0.02043.
Consider `Cc1nc(/C=C2\C(=O)Nc3ccccc32)c[nH]1` [drawing 480], for which the “Results … 0.5 uM” value turned out to be 0.01879; the “Results … 1 uM” value is listed as −0.05703; the “Results … Myotubes, 5 uM” value was determined as 0.093; the “Results … 10 uM” value is listed as 0.007066. Also, the “Results … 20 uM” value was determined as 0.01022 and the “Results … 40 uM” value is reported as −0.04283.
As to `O=C(NCCc1ccc(Cl)cc1)C1CCCO1` (stereo not drawn) [drawing 481], the “Results … 0.5 uM” value is on record as 0.008299; the “Results … 1 uM” value is on record as −0.0666; the “Results … Myotubes, 5 uM” value is recorded as 0.2373; the “Results … 10 uM” value is reported as −0.07246. In addition, the “Results … 20 uM” value is reported as −0.08414 and the “Results … 40 uM” value is reported as −0.169.
Turning to `CCNC(=O)C(=O)Nc1cc2c3c(c1)CCN3C(=O)CC2` [drawing 482], the “Results … 0.5 uM” value is given as 0.05071; the “Results … 1 uM” value was −0.07574; the “Results … Myotubes, 5 uM” value was found to be 0.4036; the “Results … 10 uM” value is −0.03505. In addition, the “Results … 20 uM” value is listed as −0.1926 and the “Results … 40 uM” value is reported as −0.2686.
For the molecule `Cc1cccc(NCC(=O)N/N=C/c2ccccn2)c1` [drawing 483], the “Results … 0.5 uM” value is 0.07633; the “Results … 1 uM” value is listed as −0.04251; the “Results … Myotubes, 5 uM” value is recorded as 0.2712; the “Results … 10 uM” value is on record as −0.04805. Moreover, the “Results … 20 uM” value stood at 0.03613 and the “Results … 40 uM” value is given as −0.1705.
Turning to `COc1ccc(CN2CCNC(=O)C2CC(=O)NCCc2c[nH]c3ccccc23)c(OC)c1` (stereo not drawn) [drawing 484], the “Results … 0.5 uM” value is −0.059; the “Results … 1 uM” value is listed as −0.1025; the “Results … Myotubes, 5 uM” value came to 0.1466; the “Results … 10 uM” value is −0.2654. Besides, the “Results … 20 uM” value was −0.1345 and the “Results … 40 uM” value is given as −0.1806.
For `O=c1c2cc(-c3ccccc3)sc2nc2n1N=C(c1ccccc1)CS2` [drawing 485], the “Results … 0.5 uM” value amounted to 0.02668; the “Results … 1 uM” value is reported as −0.1163; the “Results … Myotubes, 5 uM” value turned out to be 0.0299; the “Results … 10 uM” value is −0.3812. The “Results … 20 uM” value is −0.1377 and the “Results … 40 uM” value is given as −0.1734.
For `Nc1ncnc(NCc2ccccc2)c1[N+](=O)[O-]` [drawing 486], the “Results … 0.5 uM” value was 0.008395; the “Results … 1 uM” value is recorded as −0.1282; the “Results … Myotubes, 5 uM” value is recorded as 0.2507; the “Results … 10 uM” value is reported as −0.3338. Further, the “Results … 20 uM” value was −0.03158 and the “Results … 40 uM” value is given as −0.2067.
`O=CN1CCN(C(=O)CC(c2ccccc2)c2cc(Br)ccc2O)CC1` (stereo not drawn) [drawing 487]: the “Results … 0.5 uM” value is reported as −0.0643; the “Results … 1 uM” value is −0.1354; the “Results … Myotubes, 5 uM” value turned out to be 0.1295; the “Results … 10 uM” value is recorded as −0.2355. For the same molecule, the “Results … 20 uM” value is on record as −0.0629 and the “Results … 40 uM” value was −0.1726.
As for `Cc1ccc2c(c1)/C(=C/c1ccco1)C(=O)N2` [drawing 488], the “Results … 0.5 uM” value is listed as −0.00427; the “Results … 1 uM” value is recorded as −0.00615; the “Results … Myotubes, 5 uM” value is 0.07579; the “Results … 10 uM” value is −0.3334. Also, the “Results … 20 uM” value was found to be 0.0134 and the “Results … 40 uM” value is on record as −0.2855.
In the case of `O=C1CCC(C(=O)N2CCSCC2)CN1Cc1ccc(Cl)cc1` (stereo not drawn) [drawing 489], the “Results … 0.5 uM” value was 0.02632; the “Results … 1 uM” value was 0.1369; the “Results … Myotubes, 5 uM” value worked out at 0.02663; the “Results … 10 uM” value was found to be 0.3226. The “Results … 20 uM” value came to 0.2089 and the “Results … 40 uM” value is given as 0.5544.

The record behind these values is patent publication US10028992B2, “Methods of treating muscular dystrophy” (BOARD OF REGENTS OF THE NEVADA SYSTEM OF HIGHER EDUCATION …, priority 2012, dated 2018).
